Source: PubChem BioAssay (NCI)
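Compound exposure: 48 hours, 5 concentrations, 96-well plates. Definition used: TGI = concentration required for complete inhibition of growth.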

Experiments:
Test in all cases: DTP human tumour cell line panel, 48 h
MALME-3M melanoma = test system: MALME-3M melanoma
A498 renal = test system: A498 renal
RPMI-8226 leukemia = test system: RPMI-8226 leukemia
SNB-19 CNS = test system: SNB-19 CNS
T-47D breast = test system: T-47D breast
SF-539 CNS = test system: SF-539 CNS
SR leukemia = test system: SR leukemia
NCI-H522 lung = test system: NCI-H522 lung
LOX IMVI melanoma = test system: LOX IMVI melanoma
SK-MEL-28 melanoma = test system: SK-MEL-28 melanoma
SNB-75 CNS = test system: SNB-75 CNS
BT-549 breast = test system: BT-549 breast
IGROV1 ovarian = test system: IGROV1 ovarian
OVCAR-5 ovarian = test system: OVCAR-5 ovarian
786-0 renal = test system: 786-0 renal
UACC-62 melanoma = test system: UACC-62 melanoma
TK-10 renal = test system: TK-10 renal
HT29 colon = test system: HT29 colon
SK-MEL-2 melanoma = test system: SK-MEL-2 melanoma
UACC-257 melanoma = test system: UACC-257 melanoma
M14 melanoma = test system: M14 melanoma
KM12 colon = test system: KM12 colon
HCT-15 colon = test system: HCT-15 colon
NCI-H23 lung = test system: NCI-H23 lung
COLO 205 colon = test system: COLO 205 colon
ACHN renal = test system: ACHN renal
HL-60(TB) leukemia = test system: HL-60(TB) leukemia
RXF 393 renal = test system: RXF 393 renal
NCI-H226 lung = test system: NCI-H226 lung
PC-3 prostate = test system: PC-3 prostate
SF-295 CNS = test system: SF-295 CNS
OVCAR-3 ovarian = test system: OVCAR-3 ovarian
SN12C renal = test system: SN12C renal
HOP-62 NSCLC = test system: HOP-62 NSCLC
K-562 leukemia = test system: K-562 leukemia
SF-268 CNS = test system: SF-268 CNS
UO-31 renal = test system: UO-31 renal
HS 578T breast = test system: HS 578T breast
DU-145 prostate = test system: DU-145 prostate
OVCAR-8 ovarian = test system: OVCAR-8 ovarian
SK-MEL-5 melanoma = test system: SK-MEL-5 melanoma
U251 CNS = test system: U251 CNS
HOP-92 NSCLC = test system: HOP-92 NSCLC
NCI/ADR-RES ovarian = test system: NCI/ADR-RES ovarian
EKVX NSCLC = test system: EKVX NSCLC
NCI-H460 lung = test system: NCI-H460 lung
OVCAR-4 ovarian = test system: OVCAR-4 ovarian
SW-620 colon = test system: SW-620 colon
HCC-2998 colon = test system: HCC-2998 colon
MDA-MB-435 = test system: MDA-MB-435
HCT-116 colon = test system: HCT-116 colon
MDA-MB-231 breast = test system: MDA-MB-231 breast
SK-OV-3 ovarian = test system: SK-OV-3 ovarian
MOLT-4 leukemia = test system: MOLT-4 leukemia
CAKI-1 renal = test system: CAKI-1 renal
MDA-N = test system: MDA-N
MCF7 breast = test system: MCF7 breast
A549 NSCLC = test system: A549 NSCLC
CCRF-CEM leukemia = test system: CCRF-CEM leukemia

With `O=C(/C=C1\C[C@H]2C=Nc3ccccc3C(=O)N2C1)NCCCNC(=O)/C=C1\C[C@H]2C=Nc3ccccc3C(=O)N2C1` as the molecule, how does the TGI (MALME-3M melanoma) read?
Its TGI is 30 µM.

And the TGI (A498 renal)?
The TGI was 31.5 µM.

What about the TGI (RPMI-8226 leukemia) of the same molecule?
Its TGI is 40 µM.

What about the TGI (SNB-19 CNS) of the same molecule?
The TGI was 31.4 µM.

And the TGI (T-47D breast)?
The TGI was 60.1 µM.

And the TGI (SF-539 CNS)?
The TGI was 34.9 µM.

What about the TGI (SR leukemia) of the same molecule?
The TGI was 4.62 µM.

What about the TGI (NCI-H522 lung) of the same molecule?
Its TGI is 4.21 µM.

And the TGI (LOX IMVI melanoma)?
Its TGI is 22.6 µM.

And the TGI (SK-MEL-28 melanoma)?
Its TGI is 35.5 µM.

And the TGI (SNB-75 CNS)?
Its TGI is 31.1 µM.

And the TGI (BT-549 breast)?
The TGI was 30.3 µM.

And the TGI (IGROV1 ovarian)?
The TGI was 31 µM.

And the TGI (OVCAR-5 ovarian)?
Its TGI is 36.2 µM.

What about the TGI (786-0 renal) of the same molecule?
Its TGI is 10.9 µM.

And the TGI (UACC-62 melanoma)?
The TGI was 29.3 µM.

And the TGI (TK-10 renal)?
The TGI was 34 µM.

What about the TGI (HT29 colon) of the same molecule?
The TGI was 32.2 µM.

What about the TGI (SK-MEL-2 melanoma) of the same molecule?
Its TGI is 33.6 µM.

And the TGI (UACC-257 melanoma)?
The TGI was 30.3 µM.

What about the TGI (M14 melanoma) of the same molecule?
The TGI was 28 µM.

What about the TGI (KM12 colon) of the same molecule?
The TGI was 31.2 µM.

What about the TGI (HCT-15 colon) of the same molecule?
Its TGI is 36.9 µM.

What about the TGI (NCI-H23 lung) of the same molecule?
The TGI was 30.4 µM.

What about the TGI (COLO 205 colon) of the same molecule?
Its TGI is 26.2 µM.

What about the TGI (ACHN renal) of the same molecule?
Its TGI is 28.1 µM.

What about the TGI (HL-60(TB) leukemia) of the same molecule?
Its TGI is 32 µM.

And the TGI (RXF 393 renal)?
Its TGI is 27.9 µM.

What about the TGI (NCI-H226 lung) of the same molecule?
The TGI was 36.3 µM.

What about the TGI (PC-3 prostate) of the same molecule?
The TGI was 31.4 µM.

And the TGI (SF-295 CNS)?
The TGI was 36.9 µM.

What about the TGI (OVCAR-3 ovarian) of the same molecule?
Its TGI is 31.3 µM.

What about the TGI (SN12C renal) of the same molecule?
Its TGI is 37.9 µM.

And the TGI (HOP-62 NSCLC)?
The TGI was 35.8 µM.

What about the TGI (K-562 leukemia) of the same molecule?
The TGI was 29.4 µM.

And the TGI (SF-268 CNS)?
The TGI was 30.8 µM.

And the TGI (UO-31 renal)?
The TGI was 28.4 µM.

And the TGI (HS 578T breast)?
Its TGI is greater than 100 µM.

What about the TGI (DU-145 prostate) of the same molecule?
The TGI was 35.9 µM.

And the TGI (OVCAR-8 ovarian)?
The TGI was 33.2 µM.

And the TGI (SK-MEL-5 melanoma)?
The TGI was 30.2 µM.

What about the TGI (U251 CNS) of the same molecule?
Its TGI is 26.6 µM.

And the TGI (HOP-92 NSCLC)?
Its TGI is 35.4 µM.

And the TGI (NCI/ADR-RES ovarian)?
The TGI was 48.4 µM.

What about the TGI (EKVX NSCLC) of the same molecule?
The TGI was 38 µM.

What about the TGI (NCI-H460 lung) of the same molecule?
Its TGI is 36.2 µM.

What about the TGI (OVCAR-4 ovarian) of the same molecule?
Its TGI is 35.6 µM.

And the TGI (SW-620 colon)?
Its TGI is 28.3 µM.

And the TGI (HCC-2998 colon)?
The TGI was 35.1 µM.

What about the TGI (MDA-MB-435) of the same molecule?
The TGI was 34.3 µM.

And the TGI (HCT-116 colon)?
Its TGI is 30.5 µM.

What about the TGI (MDA-MB-231 breast) of the same molecule?
Its TGI is 29.7 µM.

And the TGI (SK-OV-3 ovarian)?
Its TGI is 36.4 µM.

What about the TGI (MOLT-4 leukemia) of the same molecule?
The TGI was 7.37 µM.

And the TGI (CAKI-1 renal)?
The TGI was 27.2 µM.

What about the TGI (MDA-N) of the same molecule?
The TGI was 32.3 µM.

And the TGI (MCF7 breast)?
The TGI was 42 µM.

And the TGI (A549 NSCLC)?
Its TGI is 46.5 µM.

`Cc1cc(C)c2c(=O)n(CN3CCC(C#N)(c4ccccc4)CC3)sc2n1` was tested. Which TGI (MALME-3M melanoma) did it give?
Its TGI is 46.5 µM.

What about the TGI (A498 renal) of the same molecule?
The TGI was greater than 100 µM.

And the TGI (SNB-19 CNS)?
Its TGI is greater than 100 µM.

What about the TGI (T-47D breast) of the same molecule?
The TGI was greater than 100 µM.

And the TGI (SF-539 CNS)?
Its TGI is 98.3 µM.

What about the TGI (SR leukemia) of the same molecule?
Its TGI is greater than 100 µM.

What about the TGI (NCI-H522 lung) of the same molecule?
Its TGI is 31.3 µM.

And the TGI (LOX IMVI melanoma)?
The TGI was 69.9 µM.

What about the TGI (SK-MEL-28 melanoma) of the same molecule?
Its TGI is greater than 100 µM.

And the TGI (SNB-75 CNS)?
Its TGI is 76.1 µM.

And the TGI (BT-549 breast)?
Its TGI is greater than 100 µM.

And the TGI (IGROV1 ovarian)?
The TGI was greater than 100 µM.

And the TGI (OVCAR-5 ovarian)?
Its TGI is 90.9 µM.

And the TGI (786-0 renal)?
Its TGI is 52.6 µM.

And the TGI (UACC-62 melanoma)?
The TGI was greater than 100 µM.

And the TGI (TK-10 renal)?
Its TGI is 63.6 µM.

What about the TGI (HT29 colon) of the same molecule?
The TGI was greater than 100 µM.

And the TGI (SK-MEL-2 melanoma)?
The TGI was greater than 100 µM.

And the TGI (UACC-257 melanoma)?
The TGI was 44.6 µM.

What about the TGI (CCRF-CEM leukemia) of the same molecule?
Its TGI is greater than 100 µM.

And the TGI (M14 melanoma)?
Its TGI is greater than 100 µM.

What about the TGI (KM12 colon) of the same molecule?
Its TGI is greater than 100 µM.

And the TGI (HCT-15 colon)?
Its TGI is greater than 100 µM.

And the TGI (NCI-H23 lung)?
Its TGI is greater than 100 µM.

And the TGI (COLO 205 colon)?
Its TGI is greater than 100 µM.

What about the TGI (ACHN renal) of the same molecule?
The TGI was 44.1 µM.

What about the TGI (HL-60(TB) leukemia) of the same molecule?
The TGI was 49.7 µM.

What about the TGI (RXF 393 renal) of the same molecule?
The TGI was 48 µM.

What about the TGI (NCI-H226 lung) of the same molecule?
Its TGI is greater than 100 µM.

What about the TGI (PC-3 prostate) of the same molecule?
The TGI was greater than 100 µM.

And the TGI (SF-295 CNS)?
The TGI was greater than 100 µM.

And the TGI (OVCAR-3 ovarian)?
The TGI was greater than 100 µM.

And the TGI (SN12C renal)?
The TGI was greater than 100 µM.

What about the TGI (HOP-62 NSCLC) of the same molecule?
Its TGI is greater than 100 µM.

And the TGI (K-562 leukemia)?
The TGI was greater than 100 µM.

What about the TGI (SF-268 CNS) of the same molecule?
The TGI was greater than 100 µM.

And the TGI (UO-31 renal)?
Its TGI is 34.1 µM.

What about the TGI (HS 578T breast) of the same molecule?
Its TGI is greater than 100 µM.

What about the TGI (DU-145 prostate) of the same molecule?
The TGI was greater than 100 µM.

And the TGI (OVCAR-8 ovarian)?
Its TGI is 81.5 µM.

And the TGI (SK-MEL-5 melanoma)?
Its TGI is greater than 100 µM.

And the TGI (U251 CNS)?
Its TGI is greater than 100 µM.

And the TGI (HOP-92 NSCLC)?
The TGI was greater than 100 µM.

What about the TGI (NCI/ADR-RES ovarian) of the same molecule?
Its TGI is greater than 100 µM.

What about the TGI (EKVX NSCLC) of the same molecule?
Its TGI is greater than 100 µM.

What about the TGI (NCI-H460 lung) of the same molecule?
The TGI was greater than 100 µM.

What about the TGI (OVCAR-4 ovarian) of the same molecule?
Its TGI is 88.8 µM.

What about the TGI (SW-620 colon) of the same molecule?
Its TGI is 67.7 µM.

What about the TGI (MDA-MB-435) of the same molecule?
Its TGI is 65.5 µM.

And the TGI (HCT-116 colon)?
Its TGI is greater than 100 µM.

And the TGI (MDA-MB-231 breast)?
Its TGI is greater than 100 µM.

And the TGI (SK-OV-3 ovarian)?
Its TGI is greater than 100 µM.

And the TGI (MOLT-4 leukemia)?
Its TGI is greater than 100 µM.

And the TGI (CAKI-1 renal)?
The TGI was greater than 100 µM.

And the TGI (MDA-N)?
The TGI was 80.3 µM.

What about the TGI (MCF7 breast) of the same molecule?
Its TGI is greater than 100 µM.

And the TGI (A549 NSCLC)?
Its TGI is greater than 100 µM.
